This is an account of results in article PMC7468908 (Nutrients, 2020).

Bounds are passed on as bounds.

Data set [1] concerns the target T1, BCRP (Homo sapiens, UniProt Q9UNQ0).
T1 construct: made in house; host or cells: Sf9 insect cells (baculovirus)
T1 sequence (Q9UNQ0 1-655): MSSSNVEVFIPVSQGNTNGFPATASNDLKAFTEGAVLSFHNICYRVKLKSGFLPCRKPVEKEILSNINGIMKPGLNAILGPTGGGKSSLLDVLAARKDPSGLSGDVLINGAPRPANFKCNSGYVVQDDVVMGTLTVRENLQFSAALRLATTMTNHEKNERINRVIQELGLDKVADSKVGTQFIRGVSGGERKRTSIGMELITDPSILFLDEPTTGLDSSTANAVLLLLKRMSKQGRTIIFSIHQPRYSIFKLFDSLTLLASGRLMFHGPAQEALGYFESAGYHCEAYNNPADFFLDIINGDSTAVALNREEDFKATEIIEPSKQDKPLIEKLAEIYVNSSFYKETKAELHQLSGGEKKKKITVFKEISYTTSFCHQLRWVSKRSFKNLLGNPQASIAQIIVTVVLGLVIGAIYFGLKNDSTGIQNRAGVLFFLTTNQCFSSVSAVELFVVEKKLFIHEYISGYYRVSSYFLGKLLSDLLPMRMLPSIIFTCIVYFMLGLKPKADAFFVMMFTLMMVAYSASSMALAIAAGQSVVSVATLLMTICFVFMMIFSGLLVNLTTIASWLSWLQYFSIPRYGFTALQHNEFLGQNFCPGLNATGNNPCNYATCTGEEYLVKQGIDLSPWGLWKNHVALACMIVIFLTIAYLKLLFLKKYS
As to the kind of experiment: BCRP vesicular transport of lucifer yellow in Sf9 membrane vesicles. The class given is biochemical. Conditions: for concentration inducing statistically significant (p < 0.01) decrease in transport of LY by BCRP: 10 μM lucifer yellow; for IC50: vesicular uptake of 10 μM lucifer yellow. As to the method:
Experiments were performed in insect membrane vesicles, as describe previously. Human BCRP and MRP2 were expressed in Sf9 insect cells by baculoviruses. At the third day of infection, cells were collected and membrane vesicles were obtained by mechanical disruption and differential centrifugation. To get full activity for BCRP, the cholesterol levels of the vesicles were adjusted to the level of mammalian membranes. Vesicles were stored at -80°C, total protein content of preparations was measured by the Lowry method (used as a reference of the quantity). Membrane vesicles (50 μg protein/sample) were incubated at 37 °C for 10 min (without or with 4 mM of Mg-ATP) in 50 μL volume, in the presence of transporter specific fluorescent substrates (10 μM lucifer yellow (LY) for BCRP and 5 μM 5(6)-Carboxy-2′,7′-dichlorofluorescein (CDCF) for MRP2). […] ATP dependent uptake of fluorescent substrates was examined in the presence of flavonoids (up to 50–200 μM). Each compound was dissolved in DMSO and solvent controls were applied in all experiments. […] After incubation, samples were rapidly filtered and washed on filter plate (MSFBN6B10, Millipore, Burlington, MA, USA). Accumulated substrates in vesicles were solved back from the filter by 100 μL of 10% sodium dodecyl sulfate and centrifuged into another plate. A 100-μL volume of fluorescence stabilizer was added to the samples (DMSO for LY, and 0.1 M NaOH for CDCF). Fluorescence of samples was measured by a plate reader (Victor X3 Perkin-Elmer, Waltham, MA, USA) at appropriate wavelengths (filters were λex = 405 nm and λem = 535 nm for LY as well as λex = 492 nm and λem = 635 nm for CDCF).

For data set [2], the target named is T2, CYP2D6 (Homo sapiens, UniProt P10635).
T2 construct: purchased Sigma-Aldrich
As to the kind of experiment: CYP2D6-catalyzed dextromethorphan O-demethylation (CypExpress kit, HPLC). The data set is classed as biochemical. To be noted: up to 30 μM flavonoid, substrate 5 µM dextromethorphan. On the procedure: Inhibition of CYP2C19 [47], 3A4 [48], and 2D6 [49] by Q and its conjugates was tested based on our previously reported methods, without modifications.
S-mephenytoin and 4-hydroxymephenytoin (CYP2C19 assay), testosterone and 6β-hydroxytestosterone (CYP3A4 assay), as well as dextromethorphan and dextrorphan (CYP2D6 assay) were quantified using the previously described methods, with minor modifications.
In the CYP2D6 assay, samples were driven through a guard column (Security Guard C8, 4.0 × 3.0 mm; Phenomenex, Torrance, CA, USA) linked to an analytical column (Mediterranea Sea8 C8 150 × 4.6 mm; 5 µm; Teknokroma, Barcelona, Spain). The isocratic elution was performed with 1 mL/min flow rate at room temperature, the mobile phase contained acetonitrile and 6.9 mM sodium-acetate buffer (pH 4.0) (31:69 v/v%). Dextromethorphan and dextrorphan were detected at 280 nm.

T2 sequence (P10635 whole entry): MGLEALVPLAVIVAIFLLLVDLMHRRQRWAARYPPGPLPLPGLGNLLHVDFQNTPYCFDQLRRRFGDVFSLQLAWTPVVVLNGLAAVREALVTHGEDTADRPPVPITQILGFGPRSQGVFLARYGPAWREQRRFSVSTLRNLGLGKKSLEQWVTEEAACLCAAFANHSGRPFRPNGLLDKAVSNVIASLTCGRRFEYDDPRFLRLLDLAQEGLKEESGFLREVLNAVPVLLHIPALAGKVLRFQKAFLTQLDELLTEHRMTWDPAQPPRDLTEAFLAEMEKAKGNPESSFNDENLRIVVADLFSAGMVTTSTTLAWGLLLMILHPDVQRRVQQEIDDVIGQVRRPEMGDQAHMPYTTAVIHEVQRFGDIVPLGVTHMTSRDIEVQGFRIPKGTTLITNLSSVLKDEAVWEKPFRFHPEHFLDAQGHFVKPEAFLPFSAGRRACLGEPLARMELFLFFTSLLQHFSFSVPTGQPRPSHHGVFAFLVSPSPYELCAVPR

Consider `COc1cc(-c2oc3cc(O)cc(O)c3c(=O)c2O)ccc1O` [IR, isorhamnetin], for which, in data set [1], the “concentration inducing statistically significant (p < 0.01) decrease in transport of LY by BCRP” value amounted to 50 nM. Also, in data set [2], the “inhibition of CYP2D6 activity” value is “did not affect”.
As a reminder, the IC50 is the concentration that gives 50% inhibition. Read a low IC50 as higher potency. For the compound `O=c1c(O)c(-c2ccc(O)c(O)c2)oc2cc(O)cc(O)c12` [Q, quercetin], in data set [1], the “concentration inducing statistically significant (p < 0.01) decrease in transport of LY by BCRP” value worked out at 50 nM and the half-maximal inhibitory concentration (IC50) is 0.13 µM. Also, the “inhibition of CYP2D6 activity” value in data set [2] is recorded as “did not affect”.
For `O=C(O)C1OC(Oc2c(-c3ccc(O)c(O)c3)oc3cc(O)cc(O)c3c2=O)C(O)C(O)C1O` (centres unmarked) [Q3G, quercetin-3-glucuronide], in data set [1], the “concentration inducing statistically significant (p < 0.01) decrease in transport of LY by BCRP” value is 1000 nM and the concentration for half-maximal inhibition (IC50) was determined as 13.5 µM. For the same compound, the “inhibition of CYP2D6 activity” value in data set [2] is reported as “did not affect”.
For the compound `O=c1c(O)c(-c2ccc(O)c(OS(=O)(=O)O)c2)oc2cc(O)cc(O)c12` [Q3′S, quercetin-3′-sulfate], in data set [1], the “concentration inducing statistically significant (p < 0.01) decrease in transport of LY by BCRP” value is 200 nM and it took 3.2 µM to reach half-maximal inhibition (IC50). Moreover, the “inhibition of CYP2D6 activity” value in data set [2] was “did not affect”.
`COc1cc(-c2oc3cc(O)cc(O)c3c(=O)c2OC2OC(C(=O)O)C(O)C(O)C2O)ccc1O` (centres unmarked) [I3G, isorhamnetin-3-glucuronide]: in data set [1], the “concentration inducing statistically significant (p < 0.01) decrease in transport of LY by BCRP” value is 20000 nM and the IC50 was more than 30 µM. In addition, in data set [2], the “inhibition of CYP2D6 activity” value is recorded as “did not affect”.
